Five molecules from patent US20180304191A1, “METHOD FOR THE SELECTIVE REMOVAL OF HYDROGEN SULFIDE” (BASF SE, priority 2015, published 2018) can be followed below.

Data set [1] is described as follows: Dynamic viscosity (Anton Paar Stabinger SVM3000 viscometer). The data set is classed as physicochemical. On the procedure: The dynamic viscosities of various compounds were measured in a viscometer (Anton Paar Stabinger SVM3000 viscometer).
In addition, the dynamic viscosities of various absorbents (without acid gas loading) were measured in the same instrument.

Data set [2] is described as follows: pKA determination by titration with hydrochloric acid (pH at half-equivalence). The following applies: for pKA1: 1st dissociation stage; for pKA2: 2nd dissociation stage.
From the text: Measurement was accomplished using a thermostated closed jacketed vessel in which the liquid was blanketed with nitrogen. The Hamilton Polylite Plus 120 pH electrode was used, which was calibrated with pH 7 and pH 12 buffer solutions.
A short description of data set [3]: Thermal stability (decomposition level of the amine in acid-gas-laden absorbent). Format: physicochemical. The following applies: 160° C., 125 h, 30% by weight amine solution. On the procedure: A Hastelloy cylinder (10 mL) was initially charged with the absorbent (30% by weight amine solution, 8 mL) and the cylinder was closed. […] The acid gas loading of the solutions was 20 m^3 (STP)/tsolvent of CO2 and 20 m^3 (STP)/tsolvent of H2S. The decomposition level of the amines was calculated from the amine concentration measured by gas chromatography before and after the experiment.

Setting [4] is: absorbent: amine 30% by wt. in EG 70% by wt., without acid gas loading.
[5] abbreviates: absorbent: amine 30% by wt. in sulfolane 70% by wt., without acid gas loading.

For `CCC(N)(CO)CO` [AEPD, 2-amino-2-ethylpropane-1,3-diol, reference compound], the Dynamic viscosity in data set [1] (setting [4]) was 25.3 mPa · s; in data set [1] (amine compound itself), 1844 mPa · s.
On to `CN(C)CCOCCN(C)C` [BDMAEE, bis(2-(N,N-dimethylamino)ethyl) ether], for which the Dynamic viscosity in data set [1] (setting [4]) is reported as 12.3 mPa · s; in data set [1] (setting [5]), 3.6 mPa · s; in data set [1] (amine compound itself) it was 0.9 mPa · s. For the same molecule, the pKA1 in data set [2] (0.01 mol/kg amine, 20° C.) was found to be 9.7. Moreover, in data set [2] (0.01 mol/kg amine, 20° C.), the pKA2 stood at 8.2.
The molecule `CN(C)CCN(C)CCN(C)C` [PMDETA, pentamethyldiethylenetriamine] showed a Dynamic viscosity in data set [1] (absorbent: amine 30% by wt. in TEG 70% by wt., without acid gas loading) of 15.3 mPa · s. In data set [1] (amine compound itself), this molecule came in with a Dynamic viscosity of 1.0 mPa · s. In data set [2] (0.01 mol/kg amine, 20° C.), the pKA1 is on record as 10.3 and the pKA2 was 8.8. Besides, the pKA3 in data set [2] (0.01 mol/kg amine, 20° C., 3rd dissociation stage) is listed as 6.5.
Take `CC(C)(C)NCCOCCO` [TBAEE, 2-(2-tert-butylaminoethoxy)ethanol, reference compound]: the Dynamic viscosity in data set [1] (setting [4]) worked out at 17.2 mPa · s; in data set [1] (amine compound itself), 16.9 mPa · s.
In data set [1] (setting [5]), `CN(C)CCOCCNC(C)(C)C` [TBAEEDA, 2-(2-tert-butylaminoethoxy)ethyl-N,N-dimethylamine] registered a Dynamic viscosity of 5.5 mPa · s. The Dynamic viscosity in data set [1] (amine compound itself) was determined as 1.5 mPa · s. For the same molecule, the “Thermal stability (comparison in words)” value in data set [3] is recorded as “higher thermal stability than MDEA”. Moreover, in data set [2] (0.01 mol/kg amine, 20° C.), the pKA1 stood at 10.4 and the pKA2 is listed as 8.4. In addition, in data set [2] (difference of pKA1 between 120° C. and 20° C.), the “ΔpKA1 (120-20° C.)” value is on record as 2.4.
